Test results published in patent US9427604B2, “Use of benzyloxy-ethylamine derivatives as a preservative, preservation method, and compositions” (L'OREAL, priority 2009, dated 2016).

Columns and labels:
Format in all cases: cell-based
Conditions in all cases: 7 days at 22° C.
[1] = tested on: Escherichia coli (Ec) ATCC 8739; assay: Challenge test (artificial contamination) in aqueous solution, E. coli
Description: (§1) The antimicrobial efficacy of compounds of formula (I) was evaluated via the challenge test or artificial contamination method after having introduced said compounds into water. The method of the challenge test consists of an artificial contamination of the sample with microbial strains from collection (bacteria, yeasts and moulds) and of an evaluation of the number of revivable microorganisms seven days after inoculation. […] 5 pure cultures of microorganisms are used. [table] The strains of gram−bacteria (Escherichia coli and Pseudomonas aeruginosa), gram+bacterium (Enterococcus faecalis), yeast (Candida albicans), and mould (Aspergillus niger) are inoculated into subculturing medium, respectively the day before inoculation for the bacteria and the yeast, and 5 days before inoculation for the mould. On the day of inoculation: • a suspension in tryptone salt diluent is prepared, respectively, for the bacteria and the yeast, so as to obtain by spectrophotometer a suspension with an optical density of between 35% and 45% of transmitted light at 544 nm; • for the mould, the spores are collected by washing the agar with 6 to 7 ml of harvesting solution and the suspension is recovered in a sterile tube or flask. After having homogenized the microbial suspension, 0.2 ml of inoculum (the suspensions are used pure: between 1×10^8 and 3×10^8 CFU per ml) are placed in each pill bottle and the microbial suspension is completely homogenized in the 20 g of product (=aqueous solution containing the compounds of formula (I) at the concentrations indicated) using a spatula. The content of microorganisms present in the product corresponds after homogenization to a concentration of 10^6 microorganisms per gram of product, i.e. inoculation to 1% of an inoculum containing 10^8 microorganisms per ml. After 7 days of contact time between the microorganisms and the product at 22° C.±2° C. and in the dark, ten-fold dilutions are carried out and the number of revivable microorganisms remaining in the product is counted.

[2] = tested on: Pseudomonas aeruginosa (Pa) ATCC 19429; assay: Challenge test (artificial contamination) in aqueous solution, P. aeruginosa
Description: as §1

[3] = tested on: Enterococcus faecalis (Ef) ATCC 33186; assay: Challenge test (artificial contamination) in aqueous solution, E. faecalis
Description: as §1

[4] = tested on: Candida albicans (Ca) ATCC 10231; assay: Challenge test (artificial contamination) in aqueous solution, C. albicans
Description: as §1

[5] = tested on: Aspergillus niger (An) ATCC 6275; assay: Challenge test (artificial contamination) in aqueous solution, A. niger
Description: as §1

[6] = content 0.01% in water, final pH 7, inoculation level 10^6 microorganisms/g
[7] = content 0.05% in water, final pH 7, inoculation level 10^6 microorganisms/g
[8] = content 0.1% in water, final pH 7.2, inoculation level 10^6 microorganisms/g
[9] = content 0.25% in water, final pH 6.9, inoculation level 10^6 microorganisms/g
[10] = content 0.5% in water, final pH 7.4, inoculation level 10^6 microorganisms/g
[11] = content 0.75% in water, final pH 7.4, inoculation level 10^6 microorganisms/g
[12] = content 1% in water, final pH 7.5, inoculation level 10^6 microorganisms/g
[13] = content 1% in water, final pH 6.6, inoculation level 10^6 microorganisms/g

Cl.NCCOCc1ccccc1 [Compound A]
No. of CFU/gram of product at T7 days, E. coli [1, 6]: 7.4 × 10^6 CFU/gram of product
No. of CFU/gram of product at T7 days, E. coli [1, 7]: 6.2 × 10^6 CFU/gram of product
No. of CFU/gram of product at T7 days, E. coli [1, 8]: 1.9 × 10^6 CFU/gram of product
No. of CFU/gram of product at T7 days, E. coli [1, 9]: 2.8 × 10^3 CFU/gram of product
No. of CFU/gram of product at T7 days, E. coli [1, 10]: <200 CFU/gram of product
No. of CFU/gram of product at T7 days, E. coli [1, 11]: <200 CFU/gram of product
No. of CFU/gram of product at T7 days, E. coli [1, 12]: <200 CFU/gram of product
No. of CFU/gram of product at T7 days, P. aeruginosa [2, 6]: 9.0 × 10^6 CFU/gram of product
No. of CFU/gram of product at T7 days, P. aeruginosa [2, 7]: 1.9 × 10^6 CFU/gram of product
No. of CFU/gram of product at T7 days, P. aeruginosa [2, 8]: 1.5 × 10^5 CFU/gram of product
No. of CFU/gram of product at T7 days, P. aeruginosa [2, 9]: 3.0 × 10^3 CFU/gram of product
No. of CFU/gram of product at T7 days, P. aeruginosa [2, 10]: <200 CFU/gram of product
No. of CFU/gram of product at T7 days, P. aeruginosa [2, 11]: <200 CFU/gram of product
No. of CFU/gram of product at T7 days, P. aeruginosa [2, 12]: <200 CFU/gram of product
No. of CFU/gram of product at T7 days, E. faecalis [3, 6]: 4.1 × 10^5 CFU/gram of product
No. of CFU/gram of product at T7 days, E. faecalis [3, 7]: 3.3 × 10^5 CFU/gram of product
No. of CFU/gram of product at T7 days, E. faecalis [3, 8]: 6.9 × 10^4 CFU/gram of product
No. of CFU/gram of product at T7 days, E. faecalis [3, 9]: 1.2 × 10^3 CFU/gram of product
No. of CFU/gram of product at T7 days, E. faecalis [3, 10]: <200 CFU/gram of product
No. of CFU/gram of product at T7 days, E. faecalis [3, 11]: <200 CFU/gram of product
No. of CFU/gram of product at T7 days, E. faecalis [3, 12]: <200 CFU/gram of product
No. of CFU/gram of product at T7 days, C. albicans [4, 6]: 3.2 × 10^6 CFU/gram of product
No. of CFU/gram of product at T7 days, C. albicans [4, 7]: 3.0 × 10^6 CFU/gram of product
No. of CFU/gram of product at T7 days, C. albicans [4, 8]: 2.8 × 10^6 CFU/gram of product
No. of CFU/gram of product at T7 days, C. albicans [4, 9]: 2.3 × 10^6 CFU/gram of product
No. of CFU/gram of product at T7 days, C. albicans [4, 10]: 1.3 × 10^6 CFU/gram of product
No. of CFU/gram of product at T7 days, C. albicans [4, 11]: 5.8 × 10^3 CFU/gram of product
No. of CFU/gram of product at T7 days, C. albicans [4, 12]: <200 CFU/gram of product
No. of CFU/gram of product at T7 days, A. niger [5, 6]: 1.4 × 10^6 CFU/gram of product
No. of CFU/gram of product at T7 days, A. niger [5, 7]: 1.3 × 10^6 CFU/gram of product
No. of CFU/gram of product at T7 days, A. niger [5, 8]: 1.0 × 10^6 CFU/gram of product
No. of CFU/gram of product at T7 days, A. niger [5, 9]: 1.0 × 10^6 CFU/gram of product
No. of CFU/gram of product at T7 days, A. niger [5, 10]: 6.2 × 10^5 CFU/gram of product
No. of CFU/gram of product at T7 days, A. niger [5, 11]: 1.6 × 10^5 CFU/gram of product
No. of CFU/gram of product at T7 days, A. niger [5, 12]: 3.6 × 10^4 CFU/gram of product

Cl.c1ccc(CNCCOCc2ccccc2)cc1 [Compound B]
No. of CFU/gram of product at T7 days, E. coli [1, 13]: <200 CFU/gram of product
No. of CFU/gram of product at T7 days, P. aeruginosa [2, 13]: <200 CFU/gram of product
No. of CFU/gram of product at T7 days, E. faecalis [3, 13]: <200 CFU/gram of product
No. of CFU/gram of product at T7 days, C. albicans [4, 13]: <200 CFU/gram of product
No. of CFU/gram of product at T7 days, A. niger [5, 13]: <200 CFU/gram of product
